Experiment [1] concerns the target Proto-oncogene tyrosine-protein kinase Src (Homo sapiens, UniProt P12931). The experiment can be described thus: Inhibition of Src tyrosine kinase.
Experiment [2] is described as follows: Inhibitory activity against phosphorylase kinase was determined.
Experiment [3] has as its target cAMP-dependent protein kinase (PKA) (Homo sapiens, UniProt P22694+P17612+P22612).
Description: Inhibitory activity against cAMP-dependent protein kinase A was determined
The nature of experiment [4]: Inhibition of Ribosomal protein S6 kinase.
Experiment [5] has as its target Epidermal growth factor receptor (Homo sapiens, UniProt P00533).
Description: Inhibitory activity against protein tyrosine kinase of Epidermal growth factor receptor was determined

Our source for the IC50 values is ChEMBL document CHEMBL1127758 (Bioorg Med Chem Lett, 1994).

As a reminder, the IC50 is the concentration needed to halve the response being measured. A higher IC50 goes with weaker potency in that assay.

Sequence of Proto-oncogene tyrosine-protein kinase Src (P12931 2-536 limits assumed): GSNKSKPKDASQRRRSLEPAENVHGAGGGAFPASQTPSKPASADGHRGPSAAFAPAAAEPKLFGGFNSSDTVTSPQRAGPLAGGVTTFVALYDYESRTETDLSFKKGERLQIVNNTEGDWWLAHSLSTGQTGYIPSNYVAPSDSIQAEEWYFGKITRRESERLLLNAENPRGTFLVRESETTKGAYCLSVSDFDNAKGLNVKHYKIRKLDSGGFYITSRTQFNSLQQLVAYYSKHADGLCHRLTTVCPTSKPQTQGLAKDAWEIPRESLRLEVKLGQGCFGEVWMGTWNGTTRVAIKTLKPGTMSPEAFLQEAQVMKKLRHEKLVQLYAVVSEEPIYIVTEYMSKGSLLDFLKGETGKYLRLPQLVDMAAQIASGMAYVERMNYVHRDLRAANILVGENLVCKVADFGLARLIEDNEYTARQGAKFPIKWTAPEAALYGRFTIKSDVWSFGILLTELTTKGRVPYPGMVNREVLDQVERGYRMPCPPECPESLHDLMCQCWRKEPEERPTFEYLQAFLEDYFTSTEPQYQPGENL
Sequence of Epidermal growth factor receptor (P00533 whole entry): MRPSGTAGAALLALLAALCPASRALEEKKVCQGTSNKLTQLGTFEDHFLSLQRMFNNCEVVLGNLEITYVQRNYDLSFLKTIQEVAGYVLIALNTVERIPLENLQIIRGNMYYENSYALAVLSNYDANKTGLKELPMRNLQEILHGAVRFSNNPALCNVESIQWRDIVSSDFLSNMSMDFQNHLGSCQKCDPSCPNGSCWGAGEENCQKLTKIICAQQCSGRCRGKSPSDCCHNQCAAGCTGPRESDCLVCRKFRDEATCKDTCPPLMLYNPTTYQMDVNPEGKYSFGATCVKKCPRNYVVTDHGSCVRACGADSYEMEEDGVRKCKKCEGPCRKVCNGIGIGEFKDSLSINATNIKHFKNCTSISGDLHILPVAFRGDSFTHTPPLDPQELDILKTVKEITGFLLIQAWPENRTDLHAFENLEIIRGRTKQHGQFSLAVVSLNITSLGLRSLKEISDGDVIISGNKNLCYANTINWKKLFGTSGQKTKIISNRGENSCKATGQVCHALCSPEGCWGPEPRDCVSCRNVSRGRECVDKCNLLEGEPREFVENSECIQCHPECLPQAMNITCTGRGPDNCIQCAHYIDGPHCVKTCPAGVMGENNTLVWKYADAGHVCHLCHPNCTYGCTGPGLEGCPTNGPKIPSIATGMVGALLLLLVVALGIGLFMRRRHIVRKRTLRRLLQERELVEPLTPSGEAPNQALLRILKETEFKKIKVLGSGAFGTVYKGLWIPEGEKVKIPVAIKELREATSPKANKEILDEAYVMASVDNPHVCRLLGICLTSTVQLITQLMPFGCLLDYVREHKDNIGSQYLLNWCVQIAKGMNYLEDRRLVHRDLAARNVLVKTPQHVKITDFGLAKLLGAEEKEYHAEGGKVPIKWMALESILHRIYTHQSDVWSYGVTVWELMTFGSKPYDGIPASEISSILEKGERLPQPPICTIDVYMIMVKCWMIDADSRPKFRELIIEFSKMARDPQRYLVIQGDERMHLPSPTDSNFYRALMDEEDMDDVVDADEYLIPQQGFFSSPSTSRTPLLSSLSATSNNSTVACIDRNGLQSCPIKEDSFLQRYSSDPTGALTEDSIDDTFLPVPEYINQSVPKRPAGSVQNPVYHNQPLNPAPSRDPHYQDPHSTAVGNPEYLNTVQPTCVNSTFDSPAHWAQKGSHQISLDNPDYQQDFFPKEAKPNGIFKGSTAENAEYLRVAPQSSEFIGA

In the case of `CCN(C)[C@H]1C[C@@H]2O[C@](C)([C@H]1OC)n1c3ccccc3c3c4c(c5c6ccccc6n2c5c31)C(=O)NC4`, the IC50 is 240 nM in experiment [1], 70 nM in experiment [2] and 1600 nM in experiment [3].

Turning to `COC(=O)N(C)[C@H]1C[C@@H]2O[C@](C)([C@H]1OC)n1c3ccccc3c3c4c(c5c6ccccc6n2c5c31)C(=O)NC4`, the half-maximal inhibitory concentration (IC50) in experiment [2] worked out at 40 nM; in experiment [3], 480 nM.

With `CO[C@H]1[C@@H](N(C)C(C)=O)C[C@@H]2O[C@@]1(C)n1c3ccccc3c3c4c(c5c6ccccc6n2c5c31)C(=O)NC4`, the IC50 in experiment [2] amounted to 10 nM; in experiment [3], 1500 nM.

Take `CN[C@H]1C[C@@H]2O[C@](C)([C@H]1OC)n1c3ccccc3c3c4c(c5c6ccccc6n2c5c31)[C@@H](O)NC4=O`: the half-maximal inhibitory concentration (IC50) was found to be 170 nM in experiment [2] and 3300 nM in experiment [3].

On to `CO[C@H]1[C@@H](N(C)C(=O)c2cccc([N+](=O)[O-])c2)C[C@@H]2O[C@@]1(C)n1c3ccccc3c3c4c(c5c6ccccc6n2c5c31)C(=O)NC4`, for which the figures for the IC50 in experiment [4], in experiment [2] and in experiment [3] were 100 nM, 60 nM and 2500 nM, respectively.

Consider `CO[C@H]1[C@@H](N(C)S(C)(=O)=O)C[C@@H]2O[C@@]1(C)n1c3ccccc3c3c4c(c5c6ccccc6n2c5c31)C(=O)NC4`, for which the values for the 50% inhibitory concentration (IC50) in experiment [2] and in experiment [3] were 19 nM and 1000 nM, respectively.

Consider `CO[C@H]1[C@@H](N(C)Cc2ccccc2)C[C@@H]2O[C@@]1(C)n1c3ccccc3c3c4c(c5c6ccccc6n2c5c31)C(=O)NC4`, for which the half-maximal inhibitory concentration (IC50) in experiment [2] came to 100 nM; in experiment [3], 480 nM.

Take `CO[C@H]1[C@@H](N(C)CCC#N)C[C@@H]2O[C@@]1(C)n1c3ccccc3c3c4c(c5c6ccccc6n2c5c31)C(=O)NC4`: the figures for the IC50 in experiment [2] and in experiment [3] were 24 nM and 1400 nM, respectively.

Regarding `COC(=O)CN1Cc2c(c3c4ccccc4n4c3c3c2c2ccccc2n3[C@]2(C)O[C@H]4C[C@H](N(C)C(=O)c3ccccc3)[C@@H]2OC)C1=O`, the IC50 was > 100000 nM in experiment [4], ~100000 nM in experiment [2] and > 100000 nM in experiment [3].

In the case of `CO[C@H]1[C@@H](N(C)C(=O)c2ccccc2Cl)C[C@@H]2O[C@@]1(C)n1c3ccccc3c3c4c(c5c6ccccc6n2c5c31)C(=O)NC4`, the IC50 in experiment [2] is 78 nM; in experiment [3] it was 1500 nM.

`CO[C@H]1[C@@H](N(C)C(=O)c2ccc(Cl)cc2)C[C@@H]2O[C@@]1(C)n1c3ccccc3c3c4c(c5c6ccccc6n2c5c31)C(=O)NC4`: the values for the IC50 in experiment [2] and in experiment [3] were 320 nM and 2600 nM, respectively.

Regarding `COc1ccc(C(=O)N(C)[C@H]2C[C@@H]3O[C@](C)([C@H]2OC)n2c4ccccc4c4c5c(c6c7ccccc7n3c6c42)C(=O)NC5)cc1`, the IC50 came out at 130 nM in experiment [2] and 1500 nM in experiment [3].

For `CO[C@H]1[C@@H](N(C)C(=O)c2cc([N+](=O)[O-])cc([N+](=O)[O-])c2)C[C@@H]2O[C@@]1(C)n1c3ccccc3c3c4c(c5c6ccccc6n2c5c31)C(=O)NC4`, the half-inhibitory concentration (IC50) is 200 nM in experiment [4], 370 nM in experiment [2] and > 100000 nM in experiment [3].

In the case of `CO[C@H]1[C@@H](N(C)CC(=O)O)C[C@@H]2O[C@@]1(C)n1c3ccccc3c3c4c(c5c6ccccc6n2c5c31)C(=O)NC4`, the half-inhibitory concentration (IC50) in experiment [2] stood at 15 nM; in experiment [3], 140 nM.

As for `CO[C@H]1[C@@H](N(C)C(=O)c2cccnc2)C[C@@H]2O[C@@]1(C)n1c3ccccc3c3c4c(c5c6ccccc6n2c5c31)C(=O)NC4`, the IC50 in experiment [2] is 12 nM; in experiment [3], 380 nM.

Turning to `CO[C@H]1[C@@H](N(C)C(=O)c2ccccc2)C[C@@H]2O[C@@]1(C)n1c3ccccc3c3c4c(c5c6ccccc6n2c5c31)C(=O)NC4=O`, the 50% inhibitory concentration (IC50) in experiment [2] was found to be 270 nM; in experiment [3] it was 750 nM.

For the molecule `CO[C@H]1[C@@H]([N+](C)(C)C)C[C@@H]2O[C@@]1(C)n1c3ccccc3c3c4c(c5c6ccccc6n2c5c31)C(=O)NC4`, the IC50 in experiment [4] is 50 nM; in experiment [2], 21 nM; in experiment [3] it was 68 nM.

In the case of `CCCCC(O)CN(C)[C@H]1C[C@@H]2O[C@](C)([C@H]1OC)n1c3ccccc3c3c4c(c5c6ccccc6n2c5c31)C(=O)NC4` (some centres not stated), the IC50 in experiment [2] came to 50 nM; in experiment [3], 360 nM.

Turning to `CO[C@H]1[C@@H](N(C)C(=O)CNC(=O)OC(C)(C)C)C[C@@H]2O[C@@]1(C)n1c3ccccc3c3c4c(c5c6ccccc6n2c5c31)C(=O)NC4`, the IC50 is 200 nM in experiment [4], 160 nM in experiment [1], 120 nM in experiment [2] and 2250 nM in experiment [3].

With `CO[C@H]1[C@@H](N(C)C(=O)C(F)(F)F)C[C@@H]2O[C@@]1(C)n1c3ccccc3c3c4c(c5c6ccccc6n2c5c31)C(=O)NC4`, the results for the concentration for half-maximal inhibition (IC50) in experiment [4], in experiment [2] and in experiment [3] were 100 nM, 10 nM and 17000 nM, respectively.

On to `COC(=O)c1ccc(C(=O)N(C)[C@H]2C[C@@H]3O[C@](C)([C@H]2OC)n2c4ccccc4c4c5c(c6c7ccccc7n3c6c42)C(=O)NC5)cc1`, for which the IC50 in experiment [2] was determined as 53 nM; in experiment [3], 3670 nM.

Regarding `CN[C@H]1C[C@@H]2O[C@](C)([C@H]1OC)n1c3ccccc3c3c4c(c5c6ccccc6n2c5c31)C(=O)NC4=O`, the IC50 in experiment [1] stood at 800 nM; in experiment [2], 5 nM; in experiment [3] it was 26 nM.

As to `CO[C@H]1[C@@H](N(C)C(=O)CCC(=O)O)C[C@@H]2O[C@@]1(C)n1c3ccccc3c3c4c(c5c6ccccc6n2c5c31)C(=O)NC4`, the IC50 in experiment [1] is 200 nM; in experiment [2], 62 nM; in experiment [3] it was 700 nM.

In the case of `CNC(=S)N(C)[C@H]1C[C@@H]2O[C@](C)([C@H]1OC)n1c3ccccc3c3c4c(c5c6ccccc6n2c5c31)C(=O)NC4`, the IC50 was 900 nM in experiment [4], 10 nM in experiment [2], 12500 nM in experiment [5] and 1600 nM in experiment [3].

Take `CO[C@H]1[C@@H](N(C)C(=O)c2cnccn2)C[C@@H]2O[C@@]1(C)n1c3ccccc3c3c4c(c5c6ccccc6n2c5c31)C(=O)NC4`: the IC50 in experiment [2] was 20 nM; in experiment [5] it was 8180 nM; in experiment [3], 750 nM.

In turn, `CN[C@H]1C[C@@H]2O[C@](C)([C@H]1OC)n1c3ccccc3c3c4c(c5c6ccccc6n2c5c31)C(=O)N[C@@H]4O` showed a 50% inhibitory concentration (IC50) in experiment [2] of 4 nM.

With `CN[C@H]1C[C@@H]2O[C@](C)([C@H]1OC)n1c3ccccc3c3c4c(c5c6ccccc6n2c5c31)[C@H](O)NC4=O`, the IC50 in experiment [2] is 22 nM; in experiment [3], 2250 nM.

Consider `CO[C@H]1[C@@H](N(C)C(=O)c2ccccc2)C[C@@H]2O[C@@]1(C)n1c3ccccc3c3c4c(c5c6ccccc6n2c5c31)C(=O)NC4`, for which the half-maximal inhibitory concentration (IC50) in experiment [2] was 48 nM.

Regarding `CO[C@H]1[C@@H](N(C)C(=O)OC(C)(C)C)C[C@@H]2O[C@@]1(C)n1c3ccccc3c3c4c(c5c6ccccc6n2c5c31)C(=O)NC4`, the IC50 in experiment [4] was 1000 nM; in experiment [2] it was 420 nM; in experiment [3], 28000 nM.

On to `CO[C@H]1[C@@H](N(C)C(=O)CN)C[C@@H]2O[C@@]1(C)n1c3ccccc3c3c4c(c5c6ccccc6n2c5c31)C(=O)NC4`, for which the IC50 was 51 nM in experiment [2] and 360 nM in experiment [3].

In the case of `CO[C@H]1[C@@H](N(C)C(=O)c2cccc(Cl)c2)C[C@@H]2O[C@@]1(C)n1c3ccccc3c3c4c(c5c6ccccc6n2c5c31)C(=O)NC4`, the 50% inhibitory concentration (IC50) in experiment [2] turned out to be 1900 nM; in experiment [3] it was 6800 nM.

In experiment [2], `CO[C@H]1[C@@H](N(C)C(=O)c2ccccc2)C[C@@H]2O[C@@]1(C)n1c3ccccc3c3c4c(c5c6ccccc6n2c5c31)C(=O)N[C@@H]4O` displayed an IC50 of 35 nM.

Take `CO[C@H]1[C@@H](N(C)C(=O)C2CCCCC2)C[C@@H]2O[C@@]1(C)n1c3ccccc3c3c4c(c5c6ccccc6n2c5c31)C(=O)NC4`: the IC50 is 80 nM in experiment [2] and 1570 nM in experiment [3].

In turn, `CN[C@H]1C[C@@H]2O[C@](C)([C@H]1OC)n1c3ccccc3c3c4c(c5c6ccccc6n2c5c31)C(=O)N[C@H]4O` came in with an IC50 in experiment [2] of 6 nM.

For the molecule `CC[N+](C)(C)[C@H]1C[C@@H]2O[C@](C)([C@H]1OC)n1c3ccccc3c3c4c(c5c6ccccc6n2c5c31)C(=O)NC4`, the IC50 in experiment [2] amounted to 18 nM; in experiment [3], 270 nM.

On to `CO[C@H]1[C@@H](N(C)C(=O)c2ccccc2)C[C@@H]2O[C@@]1(C)n1c3ccccc3c3c4c(c5c6ccccc6n2c5c31)C(=O)N(Cc1ccccc1)C4`, for which the concentration for half-maximal inhibition (IC50) in experiment [4] is > 100000 nM; in experiment [2], ~100000 nM; in experiment [3], > 100000 nM.

Turning to `CO[C@H]1[C@@H](N(C)OC(=O)C(C)(C)C)C[C@@H]2O[C@@]1(C)n1c3ccccc3c3c4c(c5c6ccccc6n2c5c31)C(=O)NC4=O`, the figures for the concentration for half-maximal inhibition (IC50) in experiment [2] and in experiment [3] were 5250 nM and > 100000 nM, respectively.

As to `CO[C@H]1[C@@H](N(C)c2ccccc2)C[C@@H]2O[C@@]1(C)n1c3ccccc3c3c4c(c5c6ccccc6n2c5c31)C(=O)NC4`, the IC50 is 15 nM in experiment [2] and 55 nM in experiment [3].

`CO[C@H]1[C@@H](N(C)C(=O)c2ccc(C(=O)O)cc2)C[C@@H]2O[C@@]1(C)n1c3ccccc3c3c4c(c5c6ccccc6n2c5c31)C(=O)NC4`: the IC50 in experiment [4] turned out to be 100 nM; in experiment [2] it was 30 nM; in experiment [3], 10000 nM.

`COC(=O)CN(C)[C@H]1C[C@@H]2O[C@](C)([C@H]1OC)n1c3ccccc3c3c4c(c5c6ccccc6n2c5c31)C(=O)NC4`: the IC50 worked out at 440 nM in experiment [2] and 3200 nM in experiment [3].
